Where two headings read alike, the source gives them in different places.
How the values were obtained:
Format in all cases: in vivo
rice (Oryza sativa) = test: Test B flooded paddy test; conditions: Oryza sativa, Flood, scale 0 to 100, read-out: Plant response rating, Rice
Summary of the method: (§1)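 Visual injury scoring (0 = no effect, 100 = complete control) versus controls made 13 to 15 days after treatment in the greenhouse. Test species were grown in flooded paddy to the 2-leaf stage: rice, barnyardgrass, umbrella sedge, duck salad.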

[1] = test system: duck salad (Heteranthera limosa); test: Test B flooded paddy test; conditions: Heteranthera limosa, Flood, scale 0 to 100, read-out: Plant response rating, Ducksalad
Summary of the method: as §1

[2] = test system: umbrella sedge (Cyperus difformis); test: Test B flooded paddy test; conditions: Cyperus difformis, Flood, scale 0 to 100, read-out: Plant response rating, Sedge, Umbrella
Summary of the method: as §1

[3] = test system: barnyardgrass (Echinochloa crus-galli); test: Test B flooded paddy test; conditions: Echinochloa crus-galli, Flood, scale 0 to 100, read-out: Plant response rating, Barnyardgrass
Summary of the method: as §1

[4] = test system: morningglory (Ipomoea coccinea); test: Test B pre/postemergence; conditions: Ipomoea; for pest or weed control at 62 g/ha: 62 g ai/ha; for pest or weed control at 125 g/ha: 125 g ai/ha
Summary of the method: (§2)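 Test chemicals in a non-phytotoxic solvent mixture with surfactant were applied preemergence to planted seeds and postemergence to plants 2 to 18 cm tall (1- to 4-leaf stage). After 13 to 15 days in a greenhouse, injury was visually rated against untreated controls on a 0 to 100 scale.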

[5] = test system: wheat (Triticum aestivum); test: Test B pre/postemergence; conditions: Triticum aestivum, scale 0 to 100 (0 no effect, 100 complete control); for plant injury at 62 g/ha: 62 g ai/ha; for plant injury at 125 g/ha: 125 g ai/ha
Summary of the method: as §2

[6] = test system: cocklebur (Xanthium strumarium); test: Test B pre/postemergence; conditions: Xanthium strumarium; for pest or weed control at 125 g/ha: 125 g ai/ha, scale 0 to 100 (0 no effect, 100 complete control)
Summary of the method: as §2

[7] = test system: Surinam grass (Brachiaria decumbens); test: Test B pre/postemergence; conditions: Urochloa decumbens; for pest or weed control at 125 g/ha: 125 g ai/ha; for pest or weed control at 62 g/ha: 62 g ai/ha
Summary of the method: as §2

[8] = test system: velvetleaf (Abutilon theophrasti); test: Test B pre/postemergence; conditions: Abutilon theophrasti; for pest or weed control at 62 g/ha: 62 g ai/ha; for pest or weed control at 125 g/ha: 125 g ai/ha
Summary of the method: as §2

[9] = test system: crabgrass (Digitaria sanguinalis); test: Test B pre/postemergence; conditions: Digitaria sanguinalis; for pest or weed control at 62 g/ha: 62 g ai/ha; for pest or weed control at 125 g/ha: 125 g ai/ha
Summary of the method: as §2

corn (Zea mays) = test: Test B pre/postemergence; conditions: Zea mays
Summary of the method: as §2

[10] = test system: pigweed (Amaranthus retroflexus); test: Test B pre/postemergence; conditions: Amaranthus retroflexus; for pest or weed control at 62 g/ha: 62 g ai/ha; for pest or weed control at 125 g/ha: 125 g ai/ha
Summary of the method: as §2

[11] = test system: barnyardgrass (Echinochloa crus-galli); test: Test B pre/postemergence; conditions: Echinochloa crus-galli, scale 0 to 100 (0 no effect, 100 complete control); for pest or weed control at 62 g/ha: 62 g ai/ha; for pest or weed control at 125 g/ha: 125 g ai/ha
Summary of the method: as §2

[12] = test system: giant foxtail (Setaria faberii); test: Test B pre/postemergence; conditions: Setaria faberi; for pest or weed control at 125 g/ha: 125 g ai/ha; for pest or weed control at 62 g/ha: 62 g ai/ha
Summary of the method: as §2

[13] = test system: lambsquarters (Chenopodium album); test: Test B pre/postemergence; conditions: Chenopodium album; for pest or weed control at 62 g/ha: 62 g ai/ha; for pest or weed control at 125 g/ha: 125 g ai/ha
Summary of the method: as §2

wild oat (Avena fatua) = test: Test B postemergence; conditions: Avena fatua, post-emergence, scale 0 to 100 (0 no effect, 100 complete control), read-out: Oat, Wild plant response rating
Summary of the method: as §2

[14] = test system: blackgrass (Alopecurus myosuroides); test: Test B postemergence; conditions: Alopecurus myosuroides, post-emergence, scale 0 to 100 (0 no effect, 100 complete control), read-out: Blackgrass plant response rating
Summary of the method: as §2

[15] = post-emergence, Postemergence, scale 0 to 100 (0 no effect, 100 complete control), read-out: Morningglory plant response rating
[16] = post-emergence, Postemergence, read-out: Wheat plant response rating
[17] = pre-emergence, Preemergence, read-out: Plant response rating, Wheat
[18] = post-emergence, Postemergence, scale 0 to 100 (0 no effect, 100 complete control), read-out: Surinam Grass plant response rating
[19] = post-emergence, Postemergence, scale 0 to 100 (0 no effect, 100 complete control), read-out: Velvetleaf plant response rating
[20] = post-emergence, Postemergence, scale 0 to 100 (0 no effect, 100 complete control), read-out: Crabgrass plant response rating
[21] = post-emergence, Postemergence, scale 0 to 100 (0 no effect, 100 complete control), read-out: Pigweed plant response rating
[22] = post-emergence, Postemergence, read-out: Barnyardgrass plant response rating
[23] = pre-emergence, Preemergence, read-out: Plant response rating, Barnyardgrass
[24] = post-emergence, Postemergence, scale 0 to 100 (0 no effect, 100 complete control), read-out: Foxtail, Giant plant response rating
[25] = post-emergence, Postemergence, scale 0 to 100 (0 no effect, 100 complete control), read-out: Lambsquarters plant response rating

CNc1nc(C2CC2)nc(C(=O)OC)c1Cl [Compound 79]
30%: pest or weed control at 62 g/ha [9, 20] | Corn plant response rating (crop injury, 0 = no effect, 100 = complete kill) at 62 g/ha (corn (Zea mays); pre-emergence, Preemergence, 62 g ai/ha, scale 0 to 100, 0 no effect, 100 complete control) | pest or weed control at 62 g/ha (wild oat (Avena fatua); 62 g ai/ha)
70%: pest or weed control at 500 g/ha ([1]; 500 g ai/ha) | pest or weed control at 62 g/ha ([4]; pre-emergence, Preemergence, scale 0 to 100, 0 no effect, 100 complete control, read-out: Plant response rating, Morningglory) | pest or weed control at 125 g/ha ([9]; pre-emergence, Preemergence, scale 0 to 100 (0 no effect, 100 complete control), read-out: Plant response rating, Crabgrass) | pest or weed control at 125 g/ha [11, 23] | pest or weed control at 125 g/ha [12, 24]
0%: plant injury at 125 g/ha (rice (Oryza sativa); 125 g ai/ha) | pest or weed control at 125 g/ha ([2]; 125 g ai/ha) | pest or weed control at 500 g/ha ([2]; 500 g ai/ha) | pest or weed control at 125 g/ha ([3]; 125 g ai/ha) | pest or weed control at 500 g/ha ([3]; 500 g ai/ha) | plant injury at 62 g/ha [5, 16] | plant injury at 62 g/ha [5, 17] | pest or weed control at 125 g/ha ([7]; pre-emergence, Preemergence, scale 0 to 100 (0 no effect, 100 complete control), read-out: Plant response rating, Surinam Grass) | pest or weed control at 62 g/ha ([7]; pre-emergence, Preemergence, scale 0 to 100, 0 no effect, 100 complete control, read-out: Plant response rating, Surinam Grass) | pest or weed control at 62 g/ha ([9]; pre-emergence, Preemergence, scale 0 to 100, 0 no effect, 100 complete control, read-out: Plant response rating, Crabgrass) | pest or weed control at 62 g/ha [11, 23] | pest or weed control at 62 g/ha ([12]; pre-emergence, Preemergence, scale 0 to 100, 0 no effect, 100 complete control, read-out: Plant response rating, Foxtail, Giant)
50%: pest or weed control at 62 g/ha ([6]; pre-emergence, Preemergence, 62 g ai/ha, scale 0 to 100, 0 no effect, 100 complete control, read-out: Plant response rating, Cocklebur) | pest or weed control at 62 g/ha [8, 19] | pest or weed control at 62 g/ha ([8]; pre-emergence, Preemergence, scale 0 to 100, 0 no effect, 100 complete control, read-out: Plant response rating, Velvetleaf) | pest or weed control at 62 g/ha [11, 22] | pest or weed control at 125 g/ha ([14]; 125 g ai/ha)
40%: plant injury at 125 g/ha [5, 16] | pest or weed control at 62 g/ha [12, 24] | pest or weed control at 125 g/ha (wild oat (Avena fatua); 125 g ai/ha)
90%: pest or weed control at 62 g/ha [4, 15] | pest or weed control at 125 g/ha ([4]; pre-emergence, Preemergence, scale 0 to 100 (0 no effect, 100 complete control), read-out: Plant response rating, Morningglory) | pest or weed control at 62 g/ha [13, 25] | pest or weed control at 62 g/ha ([13]; pre-emergence, Preemergence, scale 0 to 100, 0 no effect, 100 complete control, read-out: Plant response rating, Lambsquarters) | pest or weed control at 125 g/ha ([13]; pre-emergence, Preemergence, scale 0 to 100 (0 no effect, 100 complete control), read-out: Plant response rating, Lambsquarters)
100%: pest or weed control at 125 g/ha [4, 15] | pest or weed control at 125 g/ha [10, 21] | pest or weed control at 125 g/ha ([10]; pre-emergence, Preemergence, scale 0 to 100 (0 no effect, 100 complete control), read-out: Plant response rating, Pigweed) | pest or weed control at 125 g/ha [13, 25]
20%: plant injury at 500 g/ha (rice (Oryza sativa); 500 g ai/ha) | pest or weed control at 62 g/ha [7, 18] | plant injury at 62 g/ha (corn (Zea mays); post-emergence, Postemergence, 62 g ai/ha, scale 0 to 100 (0 no effect, 100 complete control), read-out: Corn plant response rating) | pest or weed control at 125 g/ha ([12]; pre-emergence, Preemergence, scale 0 to 100 (0 no effect, 100 complete control), read-out: Plant response rating, Foxtail, Giant) | pest or weed control at 62 g/ha ([14]; 62 g ai/ha)
80%: pest or weed control at 125 g/ha ([6]; pre-emergence, Preemergence, read-out: Plant response rating, Cocklebur) | pest or weed control at 125 g/ha [8, 19] | pest or weed control at 125 g/ha ([8]; pre-emergence, Preemergence, scale 0 to 100 (0 no effect, 100 complete control), read-out: Plant response rating, Velvetleaf) | pest or weed control at 62 g/ha [10, 21] | pest or weed control at 62 g/ha ([10]; pre-emergence, Preemergence, scale 0 to 100, 0 no effect, 100 complete control, read-out: Plant response rating, Pigweed) | pest or weed control at 125 g/ha [11, 22]
60%: plant injury at 125 g/ha [5, 17] | pest or weed control at 125 g/ha ([6]; post-emergence, Postemergence, read-out: Cocklebur plant response rating) | pest or weed control at 125 g/ha [7, 18] | pest or weed control at 125 g/ha [9, 20] | plant injury at 125 g/ha (corn (Zea mays); post-emergence, Postemergence, 125 g ai/ha, scale 0 to 100 (0 no effect, 100 complete control), read-out: Corn plant response rating) | Corn plant response rating (crop injury, 0 = no effect, 100 = complete kill) at 125 g/ha (corn (Zea mays); pre-emergence, Preemergence, 125 g ai/ha, scale 0 to 100 (0 no effect, 100 complete control))
10%: pest or weed control at 125 g/ha ([1]; 125 g ai/ha)

Reference: patent US8802597B2, “Herbicidal pyrimidines” (E I du Pont de Nemours and Company, priority 2003, dated 2014)
